Measured values reported in ChEMBL document CHEMBL1201862, “PubChem BioAssay data set” (2004).
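Five concentrations, 48 hours, 96-well plates. At the GI50, growth is halved.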 Active and inactive are the calls of the source. No stated cut-off is given here; in the data, active = GI50 up to about 1.1 µM and inactive = higher.

Key:
Experiment in all cases: NCI tumour cell line growth inhibition, 48 h
[1] = test system: A498
[2] = test system: A549
[3] = test system: ACHN
[4] = test system: CAKI-1
[5] = test system: CCRF-CEM
[6] = test system: DLD-1
[7] = test system: DMS-114
[8] = test system: DMS-273
[9] = test system: EKVX
[10] = test system: HCC 2998
[11] = test system: HCT-116
[12] = test system: HCT-15
[13] = test system: HL-60
[14] = test system: HOP-18
[15] = test system: HOP-62
[16] = test system: HT-29
[17] = test system: IGROV-1
[18] = test system: K562
[19] = test system: KM-20L2
[20] = test system: LOX IMVI
[21] = test system: LXFL 529
[22] = test system: M14
[23] = test system: M19-MEL
[24] = test system: MOLT-4
[25] = test system: Malme-3M
[26] = test system: NCI-H226
[27] = test system: NCI-H23
[28] = test system: NCI-H460
[29] = test system: NCI-H522
[30] = test system: OVCAR-3
[31] = test system: OVCAR-4
[32] = test system: OVCAR-5
[33] = test system: OVCAR-8
[34] = test system: RPMI-8226
[35] = test system: RXF 393
[36] = test system: RXF 631
[37] = test system: SF-268
[38] = test system: SF-295
[39] = test system: SF-539
[40] = test system: SK-MEL-2
[41] = test system: SK-MEL-5
[42] = test system: SK-OV-3
[43] = test system: SN12C
[44] = test system: SNB-19
[45] = test system: SNB-75
[46] = test system: SNB-78
[47] = test system: SR
[48] = test system: SW-620
[49] = test system: TK-10
[50] = test system: U-251
[51] = test system: UACC-257
[52] = test system: UACC-62
[53] = test system: UO-31
[54] = test system: XF498
[55] = test system: 786-0
[56] = test system: COLO 205
[57] = test system: HOP-92
[58] = test system: KM12
[59] = test system: SK-MEL-28

Measured: GI50

COc1ccc(C(=O)Cc2ccc(Cl)cc2)cc1OC
inactive: [1] > 100 µM | [2] > 100 µM | [3] > 100 µM | [4] > 100 µM | [5] > 100 µM | [6] > 100 µM | [7] > 100 µM | [8] > 100 µM | [9] > 100 µM | [10] > 100 µM | [11] > 100 µM | [13] > 100 µM | [14] > 100 µM | [15] > 100 µM | [16] > 100 µM | [17] > 100 µM | [18] > 100 µM | [19] > 100 µM | [20] > 100 µM | [21] > 100 µM | [22] > 100 µM | [23] > 100 µM | [24] > 100 µM | [25] > 100 µM | [26] > 100 µM | [27] > 100 µM | [28] > 100 µM | [29] 64.9 µM | [30] > 100 µM | [31] > 100 µM | [32] > 100 µM | [33] > 100 µM | [34] > 100 µM | [35] > 100 µM | [36] > 100 µM | [37] > 100 µM | [38] > 100 µM | [39] > 100 µM | [40] > 100 µM | [41] > 100 µM | [42] > 100 µM | [43] > 100 µM | [44] > 100 µM | [45] 34.4 µM | [46] > 100 µM | [47] > 100 µM | [48] > 100 µM | [49] > 100 µM | [50] > 100 µM | [51] > 100 µM | [52] > 100 µM | [53] > 100 µM | [54] > 100 µM
> 100 µM: [12]

Cc1cc(NS(=O)(=O)c2ccc(NC(=O)c3ccc(Cl)c4c(Nc5ccc(S(N)(=O)=O)cc5)c5ccccc5nc34)cc2)no1
inactive: [55] 18.3 µM | [1] 23.3 µM | [2] 66.5 µM | [3] 29.1 µM | [4] 21.1 µM | [56] 18.7 µM | [6] 21.7 µM | [7] 20.2 µM | [8] 21.5 µM | [9] 33.1 µM | [10] 18.7 µM | [11] 15.2 µM | [13] 13.3 µM | [14] 30.1 µM | [15] 21.2 µM | [57] 19.7 µM | [16] 22.2 µM | [17] 21.2 µM | [18] 26.9 µM | [19] 24.5 µM | [58] 19.6 µM | [20] 14.6 µM | [21] 15.9 µM | [22] 26.9 µM | [23] 20 µM | [24] 22.5 µM | [25] 15.5 µM | [26] 20.3 µM | [27] 23.4 µM | [28] 25.8 µM | [29] 11 µM | [30] 20 µM | [31] 24.3 µM | [32] 24.5 µM | [33] 17.9 µM | [35] 16.8 µM | [36] 21.6 µM | [37] 12.9 µM | [38] 25.1 µM | [39] 17.3 µM | [59] 20.3 µM | [41] 18.2 µM | [42] 34.8 µM | [43] 23.1 µM | [44] 14.7 µM | [45] 20.3 µM | [46] 36.8 µM | [47] 20.4 µM | [48] 17.4 µM | [49] 27 µM | [50] 11.5 µM | [51] 24 µM | [52] 11.2 µM | [53] 23.2 µM | [54] 19.5 µM
> 100 µM: [12]

C=CCCCCCCCCC(=O)NS(=O)(=O)c1ccccc1
inactive: [55] > 100 µM | [1] > 100 µM | [2] 57.7 µM | [3] 71 µM | [4] > 100 µM | [56] > 100 µM | [6] 96.6 µM | [7] > 100 µM | [8] 88.1 µM | [9] > 100 µM | [10] > 100 µM | [11] 93.8 µM | [13] 44.7 µM | [14] 40.9 µM | [15] > 100 µM | [57] 56.9 µM | [16] > 100 µM | [17] > 100 µM | [18] 54.5 µM | [19] > 100 µM | [58] 73.6 µM | [20] > 100 µM | [21] > 100 µM | [22] > 100 µM | [23] > 100 µM | [24] 48.6 µM | [25] > 100 µM | [26] > 100 µM | [27] > 100 µM | [28] > 100 µM | [29] 55.3 µM | [30] > 100 µM | [31] > 100 µM | [32] > 100 µM | [33] > 100 µM | [34] 35.8 µM | [35] > 100 µM | [36] > 100 µM | [37] > 100 µM | [38] > 100 µM | [39] > 100 µM | [59] 99.3 µM | [40] > 100 µM | [42] > 100 µM | [43] > 100 µM | [44] > 100 µM | [45] 92.5 µM | [46] > 100 µM | [48] > 100 µM | [49] > 100 µM | [50] 77.4 µM | [51] > 100 µM | [52] 53.2 µM | [53] 30.7 µM | [54] > 100 µM
